Converted amounts (≈) assume the structure as drawn. The source made the active and inactive calls. The calls are words filed in the database; no cut-off is given here. Where a SMILES comes first, the peptide text is derived from it. Side-chain parts run from the residue outwards.
Assays:
Erythrocyte = assay: Hemolytic activity in mouse erythrocytes assessed as 10% hemolysis incubated for 1 hr by absorbance based analysis; assay type: toxicity, cell-based
Staphylococcus aureus [1] = assay: Synergistic antibacterial activity against Staphylococcus aureus ATCC 25923 assessed as fractional inhibitory concentration index at 0.25 to 4 times MIC incubated for 20 hrs in presence of rifampicin by checkerboard assay; assay type: functional
Cell membrane [2] = assay: Disruption of cell membrane morphology in Escherichia coli assessed as loss of intact cell morphology at 2 times MIC measured after 0.5 to 2 hrs by SEM analysis; assay type: cell membranes; conditions: time 0.5-2 hrs
Staphylococcus aureus [3] = assay: Synergistic antibacterial activity against Staphylococcus aureus ATCC 25923 assessed as fractional inhibitory concentration index at 0.25 to 4 times MIC incubated for 20 hrs in presence of polymyxin B by checkerboard assay; assay type: functional
[4] = Therapeutic index, ratio of MHC10 for hemolytic activity in mouse erythrocytes preincubated with 10% mouse serum for 1 hr to MIC for Staphylococcus aureus ATCC 25923 preincubated with 10% mouse serum for 1 hr; assay type: toxicity, cell-based; conditions: mouse erythrocytes, read-out: TI
Staphylococcus aureus [5] = assay: Antibacterial activity against Staphylococcus aureus ATCC 25923 assessed as inhibition of bacterial growth preincubated with 10% mouse serum for 6 hrs and measured after 20 hrs by broth microdilution method; assay type: functional
Pseudomonas aeruginosa = assay: Antibacterial activity against Pseudomonas aeruginosa ATCC 27853 assessed as inhibition of bacterial growth incubated for 20 hrs by broth microdilution method; assay type: functional
Acinetobacter baumannii = assay: Antibacterial activity against Acinetobacter baumannii ATCC 19606 assessed as inhibition of bacterial growth incubated for 20 hrs by broth microdilution method; assay type: functional
Cell membrane [6] = assay: Induction of cell membrane damage in Staphylococcus aureus assessed as increase in PI uptake at 2 times MIC measured after 2 hrs by PI dye based flow cytometry analysis; assay type: cell membranes
Escherichia coli [7] = assay: Antibiofilm activity against Escherichia coli ATCC 25922 assessed as inhibition of biofilm formation at 0.5 to 4 times MIC measured after 24 hrs by crystal violet staining based analysis; assay type: functional, organism-based
Cell membrane [8] = assay: Induction of inner membrane permeabilization in Escherichia coli ML-35 ATCC 43837 at 0.5 to 4 times MIC measured every 5 mins over 135 mins by ONPG reagent based microplate reader analysis
Staphylococcus aureus [9] = assay: Resistant development in Staphylococcus aureus assessed as increase in MIC at sub-MIC in presence of rifampicin measured after 20 passages; assay type: functional, organism-based
Staphylococcus aureus [10] = assay: Antibacterial activity against Staphylococcus aureus ATCC 25923 assessed as inhibition of bacterial growth by measuring fold increase in MIC incubated for 20 hrs in presence of MgCl2 by broth microdilution method relative to control; assay type: functional
Staphylococcus aureus [11] = assay: Antibacterial activity against Staphylococcus aureus ATCC 25923 assessed as inhibition of bacterial growth by measuring fold increase in MIC incubated for 20 hrs in presence of NaCl by broth microdilution method relative to control; assay type: functional
Staphylococcus aureus [12] = assay: Antibacterial activity against Staphylococcus aureus ATCC 25923 assessed as inhibition of bacterial growth incubated for 20 hrs by broth microdilution method; assay type: functional
Escherichia coli [13] = assay: Synergistic antibacterial activity against gentamicin resistant Escherichia coli ATCC 25922 assessed as fractional inhibitory concentration index at 0.25 to 4 times MIC incubated for 20 hrs in presence of gentamicin by checkerboard assay; assay type: functional
Staphylococcus aureus [14] = assay: Antibacterial activity against Staphylococcus aureus ATCC 25923 assessed as inhibition of bacterial growth by measuring fold increase in MIC incubated for 20 hrs in presence of KCl by broth microdilution method relative to control; assay type: functional
Staphylococcus aureus [15] = assay: Additive antibacterial activity against Staphylococcus aureus ATCC 25923 assessed as fractional inhibitory concentration index at 0.25 to 4 times MIC incubated for 20 hrs in presence of vancomycin by checkerboard assay; assay type: functional
Staphylococcus aureus [16] = assay: Antibacterial activity against Staphylococcus aureus ATCC 25923 assessed as inhibition of bacterial growth by measuring fold increase in MIC incubated for 20 hrs in presence of FeCl3 by broth microdilution method relative to control; assay type: functional
Escherichia coli [17] = assay: Additive antibacterial activity against Escherichia coli ATCC 25922 assessed as fractional inhibitory concentration index at 0.25 to 4 times MIC incubated for 20 hrs in presence of vancomycin by checkerboard assay; assay type: functional
Cell membrane [18] = assay: Induction of cytoplasmic membrane depolarization in Staphylococcus aureus assessed as increase in fluorescence intensity at >1 times MIC measured within 1 min by DISC3-5 dye based fluorescence analysis
Bacillus subtilis = assay: Antibacterial activity against Bacillus subtilis ATCC 23857 assessed as inhibition of bacterial growth incubated for 20 hrs by broth microdilution method; assay type: functional
Klebsiella pneumoniae = assay: Antibacterial activity against Klebsiella pneumoniae ATCC 700603 assessed as inhibition of bacterial growth incubated for 20 hrs by broth microdilution method; assay type: functional
Cell membrane [19] = assay: Induction of cell membrane damage in Escherichia coli assessed as increase in PI uptake at 2 times MIC measured after 2 hrs by PI dye based flow cytometry analysis; assay type: cell membranes
Escherichia coli [20] = assay: Antibacterial activity against Escherichia coli ATCC 25922 assessed as inhibition of bacterial growth preincubated with 10% mouse serum for 6 hrs and measured after 20 hrs by broth microdilution method; assay type: functional
Staphylococcus aureus [21] = assay: Synergistic antibacterial activity against Staphylococcus aureus ATCC 25923 assessed as fractional inhibitory concentration index at 0.25 to 4 times MIC incubated for 20 hrs in presence of gentamicin by checkerboard assay; assay type: functional
Escherichia coli [22] = assay: Antibacterial activity against Escherichia coli ATCC 25922 assessed as inhibition of bacterial growth preincubated with 10% mouse serum for 1 hr and measured after 20 hrs by broth microdilution method; assay type: functional
Staphylococcus aureus [23] = assay: Antibacterial activity against Staphylococcus aureus ATCC 25923 assessed as inhibition of bacterial growth by measuring fold increase in MIC incubated for 20 hrs in presence of ZnCl2 by broth microdilution method relative to control; assay type: functional
Staphylococcus aureus [24] = assay: Antibacterial activity against Staphylococcus aureus ATCC 25923 assessed as inhibition of bacterial growth preincubated with 10% mouse serum for 1 hr and measured after 20 hrs by broth microdilution method; assay type: functional
Escherichia coli [25] = assay: […] activity against Escherichia coli ATCC 25922 infected in male BALB/c pulmonary infection model assessed as reduction in infiltration of pneumonia cells at 5 to 10 mg/kg, ip administered at 3 and 12 hrs post infection and measured 24 hrs post infection by H and E staining based analysis; assay type: functional, organism-based; conditions: dose 5-10 mg/kg, time 12-21 hrs
Escherichia coli [26] = assay: Antibacterial activity against Escherichia coli ATCC 25922 assessed as inhibition of bacterial growth incubated for 20 hrs by broth microdilution method; assay type: functional
Escherichia coli [27] = assay: […] activity against Escherichia coli ATCC 25922 infected in ip dosed male BALB/c pulmonary infection model assessed as reduction in bacterial colonies administered at 3 and 12 hrs post infection and measured 24 hrs post infection; assay type: functional, organism-based; conditions: dose 5-10 mg/kg, time 12-21 hrs
Staphylococcus aureus [28] = assay: Antibiofilm activity against Staphylococcus aureus ATCC 25923 assessed as inhibition of biofilm formation at 0.5 to 4 times MIC measured after 24 hrs by crystal violet staining based analysis; assay type: functional, organism-based
Staphylococcus aureus [29] = assay: Additive antibacterial activity against Staphylococcus aureus ATCC 25923 assessed as fractional inhibitory concentration index at 0.25 to 4 times MIC incubated for 20 hrs in presence of kanamycin by checkerboard assay; assay type: functional

Molecule	MHC10 (Erythrocyte) [µM]	fractional inhibitory concentration index (FICI) (Staphylococcus aureus [1])	Activity (Cell membrane [2])	fractional inhibitory concentration index (FICI) (Staphylococcus aureus [3])	selectivity ratio [4]	MIC (Staphylococcus aureus [5]; time 21 hrs) [µM]	MIC (Pseudomonas aeruginosa) [µM]	MIC (Acinetobacter baumannii) [µM]	fold change (FC) (Staphylococcus aureus [10])	fold change (FC) (Staphylococcus aureus [11])	MIC (Staphylococcus aureus [12]) [µM]	fold change (FC) (Staphylococcus aureus [14])	fractional inhibitory concentration index (FICI) (Staphylococcus aureus [15])	fold change (FC) (Staphylococcus aureus [16])	MIC (Bacillus subtilis) [µM]	MIC (Klebsiella pneumoniae) [µM]	fractional inhibitory concentration index (FICI) (Staphylococcus aureus [21])	fold change (FC) (Staphylococcus aureus [23])	MIC (Escherichia coli [26]) [µM]	fractional inhibitory concentration index (FICI) (Staphylococcus aureus [29])	also measured
N=C(N)NCCC[C@H](NC(=O)[C@@H](N)CCCNC(=N)N)C(=O)NCCCC[C@H](NC(=O)[C@H](CCCNC(=N)N)NC(=O)[C@@H](N)CCCNC(=N)N)C(=O)N[C@@H](Cc1c[nH]c2ccccc12)C(=O)N[C@@H](Cc1c[nH]c2ccccc12)C(=O)N[C@@H](Cc1c[nH]c2ccccc12)C(=O)N[C@@H](Cc1c[nH]c2ccccc12)C(N)=O (H-RRK([Arg-Arg])WWWW-NH2)	> 256	0.375	Active	0.313	1	1 (≈ 1.51 µg/mL)	8 (≈ 12.1 µg/mL)	32 (≈ 48.5 µg/mL)	<=2	<=2	16 (≈ 24.2 µg/mL)	<=2	0.563	<=2	4 (≈ 6.06 µg/mL)	64 (≈ 96.9 µg/mL)	0.313	<=2	16 (≈ 24.2 µg/mL)	0.563	Activity (Cell membrane [6]): inactive; Activity (Escherichia coli [7]): Dose-Dependent Effect; Activity (Cell membrane [8]): Dose-Dependent Effect; Activity (Staphylococcus aureus [9]): inactive; fractional inhibitory concentration index (FICI) (Escherichia coli [13]): 5; fractional inhibitory concentration index (FICI) (Escherichia coli [17]): 0.563; Activity (Cell membrane [18]): Active; Activity (Cell membrane [19]): inactive; MIC (Escherichia coli [20]; time 26 hrs): 2 µM (≈ 3.03 µg/mL); MIC (Escherichia coli [22]; time 21 hrs): 1 µM (≈ 1.51 µg/mL); MIC (Staphylococcus aureus [24]; time 21 hrs): 1 µM (≈ 1.51 µg/mL); Activity (Escherichia coli [25]): Active; Activity (Escherichia coli [27]): Dose-Dependent Effect; Activity (Staphylococcus aureus [28]): Dose-Dependent Effect
POLYMYXIN B							4	2	< 2	4	16	< 2	0.563	< 2	4	4	0.313	< 2	4	0.563	MIC (Staphylococcus aureus [5]; time 21.0 hrs): 1 µM; fractional inhibitory concentration index (FICI) (Escherichia coli [13]): 0.312; MIC (Escherichia coli [20]; time 26.0 hrs): 2 µM; MIC (Escherichia coli [22]; time 21.0 hrs): 1 µM; MIC (Staphylococcus aureus [24]; time 21.0 hrs): 1 µM; Activity (Escherichia coli [27]): Dose-Dependent Effect
N=C(N)NCCC[C@H](NC(=O)[C@H](CCCNC(=N)N)NC(=O)[C@H](CCCNC(=N)N)NC(=O)[C@@H](N)CCCNC(=N)N)C(=O)N[C@@H](CCCCN)C(=O)N[C@@H](Cc1c[nH]c2ccccc12)C(=O)N[C@@H](Cc1c[nH]c2ccccc12)C(=O)N[C@@H](Cc1c[nH]c2ccccc12)C(=O)N[C@@H](Cc1c[nH]c2ccccc12)C(N)=O	> 256	0.375	Active	0.375	0.5	2 (≈ 3.03 µg/mL)	16 (≈ 24.2 µg/mL)	64 (≈ 96.9 µg/mL)	<=2	<=2	8 (≈ 12.1 µg/mL)	<=2	0.563	<=2	4 (≈ 6.06 µg/mL)	32 (≈ 48.5 µg/mL)	0.375	<=2	8 (≈ 12.1 µg/mL)	0.563	Activity (Cell membrane [6]): inactive; Activity (Escherichia coli [7]): Dose-Dependent Effect; Activity (Cell membrane [8]): Dose-Dependent Effect; Activity (Staphylococcus aureus [9]): inactive; fractional inhibitory concentration index (FICI) (Escherichia coli [17]): 0.625; Activity (Cell membrane [18]): Active; Activity (Cell membrane [19]): inactive; MIC (Escherichia coli [20]; time 26 hrs): 4 µM (≈ 6.06 µg/mL); MIC (Escherichia coli [22]; time 21 hrs): 2 µM (≈ 3.03 µg/mL); MIC (Staphylococcus aureus [24]; time 21 hrs): 2 µM (≈ 3.03 µg/mL); Activity (Escherichia coli [25]): Active; Activity (Staphylococcus aureus [28]): Dose-Dependent Effect
